{"source": "patent US20240327392A1", "about": "“HETEROCYCLOALKYL-SUBSTITUTED POLYHETEROAZOLE DERIVATIVES AS MEDICAMENTS FOR TREATING AND/OR PREVENTING RS VIRUS INFECTIONS” (ALBIUS SCIENCES ALPHA PRIVATE LIMITED, priority 2021, published 2024)"}
{"system": "human RS virus A2 strain", "assay": "In vitro test for anti-RS virus proliferation inhibitory activity (quantitative RT-PCR of RS virus RNA copy number in infected Vero cells)", "format": "cell-based", "conditions": "72 h; Vero cells infected with human RS virus A2 strain, 3 days of incubation, RS virus N gene RNA copy number by quantitative RT-PCR; read-out: Anti-RS virus Activity", "protocol": "(§1) A mixture of Vero cells (3.4×10^5 cells/mL) and human RS virus A2 strain (1.7×10^4 TCID50/mL) (EMEM medium supplemented with 10% FCS) was added to a 96-well plate at 50 μL/well, and the 10% FCS-supplemented EMEM medium adjusted to the desired final concentration of the compounds to be tested was added at 50 μL/well, followed by incubating the plate at 37° C. in the presence of 5% CO2 at 37° C. After 3 days of incubation, the supernatant was removed, the cells were washed with PBS(−), and the cell lysis buffer supplied with the SingleShot (registered trademark) Cell Lysis Kit (Bio-Rad) was added dropwise at 50 μL/well to lysis the cells thereby providing the cell lysate.\n(§2) Human RS virus RNA copy number in the cell lysate was determined by quantitative RT-PCR using iTaq Universal SYBR Green One-Step Kit (Bio-Rad). Specifically, primers targeting human RS virus N gene (Rameix-Welti et al, Nat Commun5: 5104, 2014. doi: 10.1038/ncomms6104) was used to prepare the reaction solution according to the instructions provided with the kit, and a 96-well PikoReal Real-Time PCR System (TCR0096, Thermo Fisher Scientific) was used to detect PCR reaction and signal assay.\n(§3) The copy number was calculated by the relative method using the comparative Ct method using compound-free virus-infected cells as controls.", "units": {"IC50": "µM"}}
{"smiles": "O=S(=O)(c1ccccc1)N1CCCC[C@H]1c1nc(CCCc2ccccc2)no1", "note": "[Compound 2D, 3-(3-phenylpropyl)-5-[(2S)-1-benzenesulfonylpiperidin-2-yl]-1,2,4-oxadiazole]", "IC50": "< 10"}
{"smiles": "O=S(=O)(c1ccccc1)N1C[C@H](O)C[C@H]1c1nc(CCCc2ccccc2)no1", "note": "[Compound 3D, 3-(3-phenylpropyl)-5-[(2S,4R)-1-benzenesulfonyl-4-hydroxypyrrolidin-2-yl]-1,2,4-oxadiazole]", "IC50": "> 50"}
{"smiles": "O=S(=O)(C1CCCCC1)N1C[C@H](O)C[C@H]1c1nc(CCCc2ccccc2)no1", "note": "[Compound 3B, 3-(3-phenylpropyl)-5-[(2S,4R)-1-cyclohexylsulfonyl-4-hydroxypyrrolidin-2-yl]-1,2,4-oxadiazole]", "IC50": "10 to 50"}
{"system": "human RS virus A2 strain", "assay": "In vitro test for anti-RS virus proliferation inhibitory activity (quantitative RT-PCR of RS virus RNA copy number in infected Vero cells)", "format": "cell-based", "conditions": "72 h; Vero cells infected with human RS virus A2 strain, 3 days of incubation, RS virus RNA copy number by quantitative RT-PCR; read-out: Anti-RS virus Activity", "protocol": "as §1, §2, §3", "units": {"IC50": "µM"}}
{"smiles": "CC(C)[C@@H]1CC[C@@H](C)C[C@H]1OC(=O)N1CCC[C@H]1c1nc(CCCc2ccccc2)no1", "note": "[Compound 1N, (−)-menthyl (S)-2-(3-(3-phenylpropyl)-1,2,4-oxadiazol-5-yl) pyrrolidine-1-carboxylate]", "IC50": "10 to 50"}
{"smiles": "O=S(=O)(N1CCCCC1)n1nc([C@H]2N[C@@H]3CC[C@H]2C3)nc1CCc1ccncc1", "note": "[25AD′]", "IC50": "10 to 50"}
{"smiles": "CC(C)(C)OC(=O)N1[C@@H]2CC[C@@H](C2)[C@H]1c1nnc(Cc2cc3ccccc3[nH]2)[nH]1", "note": "[Compound 28-1, Tert-butyl (1R,3S,4S)-3-(5-((1H-indol-2-yl)methyl)-4H-1,2,4-triazol-3-yl)-2-azabicyclo[2.2.1]heptane-2-carboxylate]", "IC50": "10 to 50"}
{"smiles": "CN(C)c1cccc2c(S(=O)(=O)N3C[C@H](F)C[C@H]3c3nc(CCCc4ccccc4)no3)cccc12", "note": "[Compound 8AL, 5-(((2S,4R)-4-fluoro-2-(3-(3-phenylpropyl)-1,2,4-oxadiazole-5-yl)pyrrolidin-1-yl)sulfonyl)-N,N-dimethylnaphthalen-1-amine]", "IC50": "< 10"}
{"smiles": "CS(=O)(=O)N1CC2(CC2)C[C@H]1c1nc(CCCc2ccccc2)no1", "note": "[Compound 5C, 3-(3-phenylpropyl)-5-{(6S)-5-methanesulfonyl-5-azaspiro[2.4]hept-6-yl}-1,2,4-oxadiazole]", "IC50": "> 50"}
{"smiles": "O=S(=O)(N1CCOCC1)N1CCCC[C@H]1c1nc(CCCc2ccccc2)no1", "note": "[Compound 2AE, (S)-4-((2-(3-(3-phenylpropyl)-1,2,4-oxadiazol-5-yl)piperidin-1-yl)sulfonyl)morpholine]", "IC50": "< 10"}
{"smiles": "CC(C)(C)S(=O)(=O)N1CCCC[C@H]1c1nc(CCCc2ccccc2)no1", "note": "[Compound 2X, (S)-5-(1-(tert-butylsulfonyl)piperidin-2-yl)-3-(3-phenylpropyl)-1,2,4-oxadiazole]", "IC50": "< 10"}
{"smiles": "COc1ccc(C(=O)NCc2noc([C@@H]3CCCCN3S(=O)(=O)C3CCCCC3)n2)cc1OC", "note": "[Compound 27B, (S)—N-((5-(1-(cyclohexylsulfonyl)piperidin-2-yl)-1,2,4-oxadiazol-3-yl)methyl)-3,4-dimethoxybenzamide]", "IC50": "10 to 50"}
{"smiles": "CN(C)c1ccc(S(=O)(=O)N2CC(CC3CCC3)CC2c2nc(CCCc3ccccc3)no2)cc1", "note": "(stereo not shown) [Compound 6AK, 4-((4-(cyclobuthylmethyl)-2-(3-(3-phenylpropyl)-1,2,4-oxadiazole-5-yl)pyrrolidin-1-yl)sulfonyl)-N,N-dimethylaniline]", "IC50": "< 10"}
{"smiles": "O=S(=O)(C1CCCCC1)N1CC(CC2CCC2)CC1c1nc(CCCc2ccccc2)no1", "note": "(stereo not shown) [Compound 6B, 3-(3-phenylpropyl)-5-(1-cyclohexylsulfonyl-4-cyclobutylmethylpyrrolidin-2-yl)-1,2,4-oxadiazole]", "IC50": "< 10"}
{"smiles": "Cc1oc([C@@H]2CCCCN2S(=O)(=O)C2CCCCC2)nc1C(=O)O", "note": "[Compound 33B, (S)-2-(1-(Cyclohexylsulfonyl)piperidin-2-yl)-5-methyl oxazole-4-carboxylic acid]", "IC50": "10 to 50"}
{"smiles": "NC(=O)[C@H]1C[C@@H](c2nc(CCCc3ccccc3)no2)N(S(=O)(=O)c2ccc(F)cc2)C1", "note": "[Compound 42AJ, (3S,5S)-1-((4-fluorophenyl)sulfonyl)-5-(3-(3-phenylpropyl)-1,2,4-oxadiazol-5-yl)pyrrolidine-3-carboxamide]", "IC50": "10 to 50"}
{"smiles": "CC(C)(C)OC(=O)NCc1noc([C@@H]2C[C@@H](c3ccccc3)CN2S(=O)(=O)c2ccc(F)cc2)n1", "note": "[Compound 43AJ, Tert-butyl ((5-((2S,4S)-1-((4-fluorophenyl)sulfonyl)-4-phenylpyrrolidin-2-yl)-1,2,4-oxadiazol-3-yl)methyl) carbamate]", "IC50": "10 to 50"}
{"smiles": "CC(C)(C)OC(=O)N1CCCC[C@H]1c1nc(CC(=O)Nc2ccccc2)no1", "note": "[Compound 23-1, Tert-butyl (S)-2-(3-(2-oxo-2-(phenylamino)ethyl)-1,2,4-oxadiazol-5-yl)piperidine-1-carboxylate]", "IC50": "10 to 50"}
{"smiles": "O=C(OCc1ccccc1)N1CCC[C@H]1c1nc(CCCc2ccccc2)no1", "note": "[Compound 1J, Benzyl (S)-2-(3-(3-phenylpropyl)-1,2,4-oxadiazol-5-yl) pyrrolidine-1-carboxylate]", "IC50": "< 10"}
{"smiles": "CC(C)OC(=O)N1CCC[C@H]1c1nc(CCCc2ccccc2)no1", "note": "[Compound 1L, Isopropyl (S)-2-(3-(3-phenylpropyl)-1,2,4-oxadiazol-5-yl) pyrrolidine-1-carboxylate]", "IC50": "10 to 50"}
{"smiles": "O=C(Cc1ccccc1)N1CCCC[C@H]1c1nc(CCCc2ccccc2)no1", "note": "[Compound 2P, (S)-2-Phenyl-1-(2-(3-(3-phenylpropyl)-1,2,4-oxadiazol-5-yl)piperidin-1-yl)ethan-1-one]", "IC50": "< 10"}
{"smiles": "CC(C)CS(=O)(=O)N1CCCC[C@H]1c1nc(CCc2ccncc2)no1", "note": "[Compound 12A, (S)-5-(1-(Isobutylsulfonyl)piperidin-2-yl)-3-(2-(pyridin-4-yl)ethyl)-1,2,4-oxadiazole]", "IC50": "< 10"}
{"smiles": "CC(C)(C)OC(=O)N1CCC(S(=O)(=O)N2CC(CC3CCC3)CC2c2nc(CCCc3ccccc3)no2)CC1", "note": "(stereo not shown) [Compound 6AO]", "IC50": "> 50"}
{"smiles": "CC(C)(C)OC(=O)N1CCCC[C@H]1c1nnc(CCCc2ccccc2)[nH]1", "note": "[Compound 20-1, Tert-butyl (S)-2-(5-(3-phenylpropyl)-4H-1,2,4-triazol-3-yl) piperidine-1-carboxylate]", "IC50": "< 10"}
{"smiles": "CS(=O)(=O)N1CC(CC2CCC2)CC1c1nc(CCCc2ccccc2)no1", "note": "(stereo not shown) [Compound 6C, 3-(3-phenylpropyl)-5-(1-methanesulfonyl-4-cyclobutylmethylpyrrolidin-2-yl)-1,2,4-oxadiazole]", "IC50": "< 10"}
{"smiles": "O=C(NCc1noc([C@@H]2CCCCN2S(=O)(=O)C2CCCCC2)n1)c1ccc2c(c1)OCO2", "note": "[Compound 21B, (S)—N-((5-(1-(cyclohexylsulfonyl)piperidin-2-yl)-1,2,4-oxadiazol-3-yl)methyl)benzo[d][1,3]dioxol-5-carboxamide]", "IC50": "> 50"}
{"smiles": "COc1ccc(S(=O)(=O)N2C[C@H](F)C[C@H]2c2nc(CCCc3ccccc3)no2)cc1", "note": "[Compound 8AI, 5-((2S,4R)-4-fluoro-1-((4-methoxyphenyl)sulfonyl)pyrrolidin-2-yl)-3-(3-phenylpropyl)-1,2,4-oxadiazole]", "IC50": "< 10"}
{"smiles": "O=S(=O)(C1CCOCC1)N1CC2(CC2)C[C@H]1c1nc(CCCc2ccccc2)no1", "note": "[Compound 5AP, (S)-3-(3-phenylpropyl)-5-(5-((tetrahydro-2H-pyran-4-yl)sulfonyl)-5-azaspiro[2.4]heptan-6-yl)-1,2,4-oxadiazole]", "IC50": "10 to 50"}
{"smiles": "CCN1CCCC[C@H]1c1nc(CCCc2ccccc2)no1", "note": "[Compound 2Z, (S)-5-(1-ethylpiperidin-2-yl)-3-(3-phenylpropyl)-1,2,4-oxadiazole]", "IC50": "10 to 50"}
{"smiles": "O=C(C1CCCCC1)N1CCCC[C@H]1c1nc(CCCc2ccccc2)no1", "note": "[Compound 2Y, (S)-cyclohexyl(2-(3-(3-phenylpropyl)-1,2,4-oxadiazol-5-yl)piperidin-1-yl)methanone]", "IC50": "< 10"}
{"smiles": "COC(=O)c1nc([C@@H]2CCCCN2S(=O)(=O)C2CCCCC2)[nH]c1C", "note": "[Compound 38B, Methyl (S)-2-(1-(cyclohexylsulfonyl)piperidin-2-yl)-5-methyl-1H-Imidazole-4-carboxylate]", "IC50": "10 to 50"}
{"smiles": "O=S(=O)(C1CCCCC1)N1CCCCC1c1ncc(-c2ccccc2)[nH]1", "note": "(stereo not shown) [Compound 40B]", "IC50": "10 to 50"}
{"smiles": "CC(C)(C)OC(=O)N1CC(CS(=O)(=O)N2CC(CC3CCC3)CC2c2nc(CCCc3ccccc3)no2)C1", "note": "(stereo not shown) [Compound 6AM, tert-buthyl 3-(((4-(cyclobuthylmethyl)-2-(3-(3-phenylpropyl)-1,2,4-oxadiazole-5-yl)pyrrolidin-1-yl)sulfonyl)methyl)azetidin-1-carboxylate]", "IC50": "< 10"}
{"smiles": "COc1ccc(S(=O)(=O)N2C[C@H](c3ccccc3)C[C@H]2c2nc(CCCc3ccccc3)no2)cc1", "note": "[Compound 7AI, 5-((2S,4S)-1-((4-methoxyphenyl)sulfonyl)-4-phenylpyrrolidin-2-yl)-3-(3-phenylpropyl)-1,2,4-oxadiazole]", "IC50": "< 10"}
{"smiles": "CC(C)CCN1CCC[C@H]1c1nc(CCCc2ccccc2)no1", "note": "[Compound 1T, (S)-5-(1-isopentylpyrrolidin-2-yl)-3-(3-phenylpropyl)-1,2,4-oxadiazole]", "IC50": "< 10"}
